Laboratory results reported in the supplement of paper PMC10307832.

Legend:
Assay in all cases: relative viability (nuclei count vs DMSO), 5 days (fraction); higher = more cells survive
[1] = compound: CCC1=CN=CN=C1N2CCN(CC2)CC3=NC4=C(N3)C=C(C=C4)C(F)(F)F + NC(=O)Nc1cc(-c2cccc(F)c2)sc1C(=O)N[C@H]1CCCNC1 [AZD7762] (partner 0.2 µM)
Outline: (§1)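 Cells from lung cancer lines were seeded into 1536-well plates and, one day later, dosed by pin tool. Treatments were either a single drug or a fixed dose of an anchor drug with five library-drug doses (not always all listed) in √10 steps. After 5 days, nuclei were stained in a one-step fixation (final 0.05% Triton X-100, 1% formaldehyde, 1 ug/ml Hoechst) and counted on 4× images, and relative viability is the treated-to-vehicle nuclei ratio, as the median of duplicate plates.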

[2] = compound: CCC1=CN=CN=C1N2CCN(CC2)CC3=NC4=C(N3)C=C(C=C4)C(F)(F)F + O=C(CCCCCCC(=O)Nc1ccccc1)NO [Vorinostat] (partner 1 µM)
Outline: as §1

[3] = compound: CCn1c(-c2nonc2N)nc2cnc(Oc3cccc(NC(=O)c4ccc(OCCN5CCOCC5)cc4)c3)cc21 + Cc1nc(NC(=O)N2CCC[C@H]2C(N)=O)sc1-c1ccnc(C(C)(C)C(F)(F)F)c1 [Alpelisib] (partner 2 µM)
Outline: as §1

[4] = compound: CCn1c(-c2nonc2N)nc2cnc(Oc3cccc(NC(=O)c4ccc(OCCN5CCOCC5)cc4)c3)cc21 + CC(C)C[C@H](NC(=O)[C@H](Cc1ccccc1)NC(=O)c1cnccn1)B(O)O [Bortezomib] (partner 0.002 µM)
Outline: as §1

Cell Line	relative viability ([1]; first compound 0.04 µM)	relative viability ([1]; first compound 0.1265 µM)	relative viability ([1]; first compound 0.4 µM)	relative viability ([1]; first compound 1.265 µM)	relative viability ([1]; first compound 4 µM)	relative viability ([2]; first compound 0.04 µM)	relative viability ([2]; first compound 0.1265 µM)	relative viability ([2]; first compound 0.4 µM)	relative viability ([2]; first compound 1.265 µM)	relative viability ([2]; first compound 4 µM)	relative viability ([3]; first compound 0.04 µM)	relative viability ([3]; first compound 0.1265 µM)	relative viability ([3]; first compound 0.4 µM)	relative viability ([3]; first compound 1.265 µM)	relative viability ([3]; first compound 4 µM)	relative viability ([4]; first compound 0.04 µM)	relative viability ([4]; first compound 0.1265 µM)	relative viability ([4]; first compound 0.4 µM)	relative viability ([4]; first compound 1.265 µM)	relative viability ([4]; first compound 4 µM)
201T	0.64	0.581	0.511	0.585	0.681	0.923	0.889	0.819	0.817	1.06	1.02	1.01	0.966	1.05	0.954	1.06	1.02	1.11	1.02	1.03
A549											0.986	0.785	0.426	0.23	0.0785					
A-427	0.735	0.788	0.631	0.641	0.785	0.776	0.836	0.794	0.721	0.809	1.22	1.13	1.04	1.1	0.998	1.16	0.952	0.892	0.946	0.475
ABC-1	0.766	0.906	0.702	0.956	0.869			0.989	0.84	1.03	1.35	0.691	0.877	0.877	0.487	0.483	0.302	0.262	0.256	0.285
BEN	0.573	0.57	0.614	0.611	0.578	0.556	0.566	0.565	0.457	0.464	1.06	1.03	0.787	0.326	0.329	0.747	0.655	0.321	0.306	0.303
CAL-12T	0.501	0.6	0.609	0.679	0.604	0.664	0.8	0.623	0.782	0.568	1.75	1.49	1.51	1.23	0.786	1.23	1.08	0.834		0.678
COR-L23						0.464	0.523	0.404	0.44	0.462	0.681	0.647	0.446	0.154	0.159	1.08	0.646	0.238	0.185	0.193
COR-L 105						0.811	0.879	0.802	0.601	1.05	1.08	0.694	0.938	0.596	0.459	0.734	0.625	0.519	0.319	0.319
Calu-6											0.861	0.827	0.582	0.477	0.455	1.03	0.922	0.771	0.5	0.469
ChaGo-K-1	0.835	0.836	0.881	0.816	0.961	0.792	0.75	0.712	0.648	0.824						1.45	0.892	0.752		0.688
EBC-1											1.02	0.767	0.678	0.733	0.557	0.771	0.566	0.537	0.458	0.342
